Measured values as given in article PMC6015749 (Neurotoxicology, 2018).
Where “and” joins values, the source holds several entries; their conditions need not be identical. Identical values can stand only once. Entries after “also recorded” stand apart in the source; their conditions may differ. Like-named read-outs stand apart in the source and are kept apart here.

How the values were obtained:
[1] = test system: dopaminergic (TH+) neurites in primary midbrain cultures; experiment: Neurite length quantification of dopaminergic; type: cell-based, rat; conditions: for Change in dopaminergic (TH+) neurite length / Dopaminergic (TH+) neurite length (mean ± SEM) / Decrease in dopaminergic (TH+) neurite length / Concentration at which decreased dopaminergic (TH+) neurite length was detected: 24 h; for Decrease in dopaminergic (TH+) neurite length: vs. control; for Change in dopaminergic (TH+) neurite length, time course: 24 – 72 h; for Concentration at which decreased dopaminergic (TH+) neurite length was detected: doses 100 nM – 5 µM
[2] = test system: dopaminergic (TH+, MAP2+) neurons in primary midbrain cultures; type: cell-based, rat; conditions: for mean % dopaminergic neurons ± S.E.M: n = 6; for Selective loss of dopaminergic neurons / DA neuron loss at 1 µM: vs. control; for percentage of dopaminergic neurons (mean ± SEM), time course: n = 4, control 6.30 ± 0.58
[3] = test system: non-dopaminergic (TH-, MAP2+) neurons in primary midbrain cultures; experiment: Raw non-dopaminergic; type: cell-based, rat; conditions: 1 µM, 24 – 72 h, all time-points
[4] = test system: dopaminergic (TH+, MAP2+) neurons in primary midbrain cultures; experiment: 3-Nitrotyrosine; conditions: 1 µM; for NT fluorescence intensity normalized to mean control value ± SEM, dopaminergic neurons: control 100 ± 9.1
[5] = test system: total neurons (MAP2+) in primary midbrain cultures; experiment: Neurite length quantification, pan-neuronal; type: cell-based, rat; conditions: 1 µM, 24 – 72 h, all time-points
[6] = test system: non-dopaminergic (TH-, MAP2+) neurons in primary midbrain cultures; experiment: 3-Nitrotyrosine; conditions: 1 µM; control 100 ± 21.61
[7] = ref PubChem Compound Database; cited from earlier work

Row | Structure (SMILES) | DA neuron loss at 1 µM ([2]; 1 µM, 24 h) | mean % dopaminergic neurons ± S.E.M ([2]; 1 µM, 24 h) | Effect on non-dopaminergic (MAP2+/TH-) cell counts, time course [3] | Change in dopaminergic (TH+) neurite length, time course ([1]; 1 µM) | Effect on non-dopaminergic neurites, time course [5] | percentage of dopaminergic neurons (mean ± SEM), time course ([2]; 1 µM, 24 h) | percentage of dopaminergic neurons (mean ± SEM), time course ([2]; 1 µM, 48 h) | percentage of dopaminergic neurons (mean ± SEM), time course ([2]; 1 µM, 72 h) | Dopaminergic (TH+) neurite length (mean ± SEM) ([1]; 1 µM) | Decrease in dopaminergic (TH+) neurite length ([1]; 1 µM) | other results
1 | Cc1cnc2cc(C)c3c(nc(N)n3C)c2n1 [4,8-DiMeIQx, 2-amino-3,4,8-trimethylimidazo[4,5-f]quinoxaline] | 26% |  |  |  |  |  |  |  |  |  | Change in dopaminergic (TH+) neurite length ([1]; all tested doses 100 nM – 5 µM): no significant alteration; also recorded: did not have an effect; mean % dopaminergic neurons ± S.E.M ([2]; 100 nM, 24 h): 4.663 ± 0.3194%; Selective loss of dopaminergic neurons ([2]; 100 nM, 24 h): 20%
2 | Nc1ccc2c(n1)[nH]c1ccccc12 [AαC, 2-amino-9H-pyrido[2,3-b]indole] | 27% | 3.932 ± 0.4382% |  |  |  |  |  |  |  |  | Dopaminergic (TH+) neurite length (mean ± SEM) ([1]; 100 nM): 62.93 ± 1.743 µm; Decrease in dopaminergic (TH+) neurite length ([1]; 100 nM): 11%
3 | Cc1nccc2c1[nH]c1ccccc12 [Harmane, 1-methyl-9H-pyrido[3,4-b]indole] | 21% |  | not affected | Decreased | not affected | 6.04 ± 0.72% | 4.80 ± 0.90% | 3.47 ± 0.53% |  |  | Dopaminergic (TH+) neurite length (mean ± SEM) ([1]; 100 nM): 62.67 ± 1.713 µm; Decrease in dopaminergic (TH+) neurite length ([1]; 100 nM): 14%; Fold increase in NT immunofluorescence signal vs. control, dopaminergic neurons [4]: ~7 fold; NT fluorescence intensity normalized to mean control value ± SEM, dopaminergic neurons [4]: 731.3 ± 94.03; NT fluorescence intensity normalized to mean control value ± SEM, non-dopaminergic neurons [6]: 188.1 ± 23.92; Threshold for detectable selective DA neurotoxicity [2]: 200 nM; mean % dopaminergic neurons ± S.E.M ([2]; 200 nM, 24 h): 4.677 ± 0.2123%; Selective loss of dopaminergic neurons ([2]; 200 nM, 24 h): 15%
4 | Cn1c(N)nc2c3cccnc3ccc21 [IQ, 2-amino-3-methylimidazo[4,5-f]quinoline] | Not significant |  |  |  |  |  |  |  |  |  | Change in dopaminergic (TH+) neurite length ([1]; higher doses): not significant decreases; Change in dopaminergic (TH+) neurite length ([1]; low doses (100 and 200 nM)): significant increases; mean % dopaminergic neurons ± S.E.M ([2]; 5 µM, 24 h): 4.338 ± 0.4525%; Selective loss of dopaminergic neurons ([2]; 5 µM, 24 h): 23%
5 | Cc1cc2ncccc2c2nc(N)n(C)c12 [MeIQ, 2-amino-3,4-dimethylimidazo[4,5-f]quinoline] | 25% |  | not affected | Decreased | not affected | 5.51 ± 0.66% | 5.11 ± 0.66% | 3.90 ± 0.81% | 63.58 ± 1.584 µm | 10% | Fold increase in NT immunofluorescence signal vs. control, dopaminergic neurons [4]: > 5 fold and ~4 fold; NT fluorescence intensity normalized to mean control value ± SEM, dopaminergic neurons [4]: 362.9 ± 45.8; NT fluorescence intensity normalized to mean control value ± SEM, non-dopaminergic neurons [6]: 130.1 ± 14.91; mean % dopaminergic neurons ± S.E.M ([2]; 200 nM, 24 h): 4.372 ± 0.3579%; Selective loss of dopaminergic neurons ([2]; 200 nM, 24 h): 23%
6 | Cc1cnc2ccc3c(nc(N)n3C)c2n1 [MeIQx, 2-amino-3,8-dimethylmidazo[4,5-f]quinoxaline] | 17% | 4.207 ± 0.3535% |  |  |  |  |  |  | 61.97 ± 1.94 µm | 12% | Log P [7]: 1.0; Concentration at which decreased dopaminergic (TH+) neurite length was detected [1]: 1000 nM
7 | c1ccc2c(c1)[nH]c1cnccc12 [Norharmane, 9H-Pyrido[3,4-B]indole] | 20% |  |  |  |  |  |  |  |  |  | Dopaminergic (TH+) neurite length (mean ± SEM) ([1]; 500 nM): 63.15 ± 1.864 µm; Decrease in dopaminergic (TH+) neurite length ([1]; 500 nM): 11%; Concentration at which decreased dopaminergic (TH+) neurite length was detected [1]: 500 nM; Concentration at which decreased dopaminergic (TH+) neurite length was detected ([1]; listed as norharmane): ≥ 500 nM; mean % dopaminergic neurons ± S.E.M ([2]; 100 nM, 24 h): 4.703 ± 0.3711%; Selective loss of dopaminergic neurons ([2]; 100 nM, 24 h): 18%
8 | Cn1c(N)nc2ncc(-c3ccccc3)cc21 [PhIP, 2-amino-1-methyl-6-phenylimidazo[4,5-b]pyridine] | 19% | 4.612 ± 0.3403% | not affected | Decreased | not affected | 5.17 ± 0.95% | 4.60 ± 0.70% | 3.61 ± 0.45% | 57.76 ± 1.656 µm | 15% | 
